Data taken from the NIST ThermoML archive (doi:10.1016/j.fluid.2015.10.026).
Numbers after ± are expanded uncertainties.

Conditions: Liquid, Brillouin light scattering

CCOC(C)(C)C [2-ethoxy-2-methylpropane]
Conditions	speed of sound [m/s]
293.15 K, 10 kPa	1059.2 ± 5.4
293.15 K, 1000 kPa	1060.3 ± 5.4
293.15 K, 2500 kPa	1070.5 ± 5.5
293.15 K, 4000 kPa	1080.8 ± 5.5
293.15 K, 5500 kPa	1091.1 ± 5.5
293.15 K, 7000 kPa	1101.5 ± 5.6
293.15 K, 8500 kPa	1111.9 ± 5.7
293.15 K, 10000 kPa	1122.4 ± 5.7
303.15 K, 10 kPa	1013 ± 5.2
303.15 K, 1000 kPa	1019.4 ± 5.2
303.15 K, 2500 kPa	1030.3 ± 5.2
303.15 K, 4000 kPa	1041.2 ± 5.3
303.15 K, 5500 kPa	1052 ± 5.4
303.15 K, 7000 kPa	1062.8 ± 5.4
303.15 K, 8500 kPa	1073.5 ± 5.5
303.15 K, 10000 kPa	1084.2 ± 5.5
313.15 K, 10 kPa	967.71 ± 6.7
313.15 K, 1000 kPa	978.21 ± 5
313.15 K, 2500 kPa	989.92 ± 5.1
313.15 K, 4000 kPa	1001.5 ± 5.1
313.15 K, 5500 kPa	1012.9 ± 5.2
313.15 K, 7000 kPa	1024.2 ± 5.2
313.15 K, 8500 kPa	1035.3 ± 5.3
313.15 K, 10000 kPa	1046.3 ± 5.3
323.15 K, 20 kPa	923.32 ± 5.7
323.15 K, 1000 kPa	936.6 ± 4.8
323.15 K, 2500 kPa	949.23 ± 4.9
323.15 K, 4000 kPa	961.61 ± 4.9
323.15 K, 5500 kPa	973.77 ± 5
323.15 K, 7000 kPa	985.68 ± 5
323.15 K, 8500 kPa	997.36 ± 5.1
323.15 K, 10000 kPa	1008.8 ± 5.2
333.15 K, 40 kPa	879.69 ± 5.8
333.15 K, 1000 kPa	894.61 ± 4.6
333.15 K, 2500 kPa	908.27 ± 4.7
333.15 K, 4000 kPa	921.59 ± 4.7
333.15 K, 5500 kPa	934.59 ± 4.8
333.15 K, 7000 kPa	947.25 ± 4.9
333.15 K, 8500 kPa	959.59 ± 4.9
333.15 K, 10000 kPa	971.59 ± 5
343.15 K, 60 kPa	836.71 ± 6.2
343.15 K, 1000 kPa	852.23 ± 4.4
343.15 K, 2500 kPa	867.04 ± 4.5
343.15 K, 4000 kPa	881.42 ± 4.5
343.15 K, 5500 kPa	895.38 ± 4.6
343.15 K, 7000 kPa	908.92 ± 4.7
343.15 K, 8500 kPa	922.03 ± 4.8
343.15 K, 10000 kPa	934.71 ± 4.8
353.15 K, 90 kPa	794.25 ± 4.1
353.15 K, 1000 kPa	809.46 ± 4.2
353.15 K, 2500 kPa	825.54 ± 4.3
353.15 K, 4000 kPa	841.11 ± 4.3
353.15 K, 5500 kPa	856.15 ± 4.4
353.15 K, 7000 kPa	870.68 ± 4.5
353.15 K, 8500 kPa	884.68 ± 4.6
353.15 K, 10000 kPa	898.16 ± 4.6
363.15 K, 130 kPa	752.18 ± 3.9
363.15 K, 1000 kPa	766.3 ± 4
363.15 K, 2500 kPa	783.78 ± 4.1
363.15 K, 4000 kPa	800.64 ± 4.1
363.15 K, 5500 kPa	816.89 ± 4.2
363.15 K, 7000 kPa	832.52 ± 4.3
363.15 K, 8500 kPa	847.54 ± 4.4
363.15 K, 10000 kPa	861.94 ± 4.5
373.15 K, 180 kPa	710.37 ± 3.7
373.15 K, 1000 kPa	722.76 ± 3.8
373.15 K, 2500 kPa	741.75 ± 3.9
373.15 K, 4000 kPa	760.03 ± 4
373.15 K, 5500 kPa	777.6 ± 4
373.15 K, 7000 kPa	794.46 ± 4.2
373.15 K, 8500 kPa	810.61 ± 4.2
373.15 K, 10000 kPa	826.04 ± 4.3
383.15 K, 250 kPa	668.66 ± 3.6
383.15 K, 1000 kPa	678.84 ± 3.6
383.15 K, 2500 kPa	699.46 ± 3.7
383.15 K, 4000 kPa	719.28 ± 3.8
383.15 K, 5500 kPa	738.29 ± 3.9
383.15 K, 7000 kPa	756.49 ± 4
383.15 K, 8500 kPa	773.88 ± 4.1
383.15 K, 10000 kPa	790.47 ± 4.1
393.15 K, 340 kPa	626.87 ± 3.4
393.15 K, 1000 kPa	634.52 ± 3.4
393.15 K, 2500 kPa	656.9 ± 3.5
393.15 K, 4000 kPa	678.37 ± 3.6
393.15 K, 5500 kPa	698.94 ± 3.7
393.15 K, 7000 kPa	718.61 ± 3.8
393.15 K, 8500 kPa	737.37 ± 3.9
393.15 K, 10000 kPa	755.23 ± 4
403.15 K, 440 kPa	584.83 ± 3.1
403.15 K, 1000 kPa	589.82 ± 3.2
403.15 K, 2500 kPa	614.07 ± 3.3
403.15 K, 4000 kPa	637.32 ± 3.4
403.15 K, 5500 kPa	659.57 ± 3.5
403.15 K, 7000 kPa	680.82 ± 3.6
403.15 K, 8500 kPa	701.07 ± 3.7
403.15 K, 10000 kPa	720.33 ± 3.8
413.15 K, 570 kPa	542.3 ± 3
413.15 K, 1000 kPa	544.74 ± 3
413.15 K, 2500 kPa	570.98 ± 3.1
413.15 K, 4000 kPa	596.12 ± 3.2
413.15 K, 5500 kPa	620.17 ± 3.3
413.15 K, 7000 kPa	643.12 ± 3.5
413.15 K, 8500 kPa	664.98 ± 3.6
413.15 K, 10000 kPa	685.74 ± 3.7
423.15 K, 730 kPa	499.06 ± 2.9
423.15 K, 2500 kPa	527.62 ± 2.9
423.15 K, 4000 kPa	554.78 ± 3
423.15 K, 5500 kPa	580.74 ± 3.1
423.15 K, 7000 kPa	605.52 ± 3.3
423.15 K, 8500 kPa	629.1 ± 3.4
423.15 K, 10000 kPa	651.49 ± 3.5
